In patent US20030069187A1, “Elastase inhibitors” (priority 2001, published 2003):

Key:
[1] = biological target: elastase; conditions: other elastase inhibitors, compared with AFP; cited from earlier work
[2] = biological target: T1, porcine pancreatic elastase (PPE) (Sus scrofa, UniProt P00772); assay: Elastase inhibitory capacity assay with succinylated elastin substrate; format: biochemical; conditions: 0.029 U PPE, 200 μg succinylated elastin; for increase in elastase inhibitory capacity compared to total EDP: 37° C. 30 min, % inhibition standardized to μg protein, p<0.001
T1 construct: purchased Calbiochem, San Diego, Calif
Method: FIG. 1 is a bar graph depicting results from experiments in which the inhibitory capacity of each EDP isolate was evaluated in triplicate using 200 μg of succinylated elastin (Rao et al., 1997; Mathrubutham et al., 1998), 30 μg of Total EDP, […] of G-25 fractions and RP-HPLC fractions and 0.029 U PPE in 150 μl with 50 mM sodium borate pH8.5. Reactions were incubated at 37° C. for 30 minutes, then treated with 2,4,6-trinitrobenzene sufonic acid. Absorbance at A450nm was determined after 20 min at room temperature. Elastase inhibitory capacity was evaluated by comparing the activity of PPE in the presence and absence of EDP, where elastase in the absence of EDP was considered to represent 100% elastase activity. The data was standardized to protein content and is presented as % inhibition per μg of protein. […] PEP7 is VPG; PEP8 is AGIP and PEP9 is AFP.
Total EDP was fractionated on a G-25 Sephadex column equilibrated with 50 mM sodium borate pH 8.5 at a flow rate of 0.7 ml/minute. G-25 inhibitory fractions were then analyzed by reverse phase high performance liquid chromatography (RP-HPLC) using a C-18 column (Vydac, Hesperia, Calif.) with 5% acetonitrile, 0.1% triflouroacetic acid pH 2.3 as RP buffer at a flow rate of 0.5 ml/minutes and monitored at A205nm. Fractions were collected, dried, and resuspended in 50 μl water and assayed for elastase inhibitory capacity (Rao et al., 1997; Mathrabutham et al., 1998). The inhibitory capacity of G-25 and RP-HPLC EDP fractions were evaluated (Rao et al., 1997; Mathrabutham et al., 1998) using 3 μg of G-25 fraction and RP-HPLC peptide with 0.029 U PPE. Percentage inhibitory capacity was evaluated by comparing the activity of PPE in the presence and absence (100% activity) of EDP and standardized to μg protein. The inhibitor constant (Ki) was experimentally calculated (Lineweaver et al., 1936). […]

T1 sequence (P00772 27-266): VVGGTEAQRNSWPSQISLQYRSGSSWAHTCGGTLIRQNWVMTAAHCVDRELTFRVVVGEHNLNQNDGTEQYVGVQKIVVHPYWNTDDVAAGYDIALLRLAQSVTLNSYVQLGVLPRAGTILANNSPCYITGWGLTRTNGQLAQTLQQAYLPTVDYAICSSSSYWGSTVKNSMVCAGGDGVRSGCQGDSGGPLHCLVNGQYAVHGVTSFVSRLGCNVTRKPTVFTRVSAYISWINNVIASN

| increase in elastase inhibitory capacity compared to total EDP [2] [fold] | Molecule | other results |
| --- | --- | --- |
|  | CC(C)C[C@H](NC(=O)N[C@H](C(=O)N[C@@H](CCC(N)=O)C(=O)N[C@@H](C)C=O)[C@@H]1CCNC(=N)N1)C(=O)O [elastatinal] | Ki [1]: 50 µM |
| 4.3 | Ala-Gly-Ile-Pro (AGIP; printed: Ala-Gly-Ile-Pro) |  |
|  | VGVAPG | elastase inhibition (% inhibition per μg of protein) ([2]; FIG. 1): elastase inhibition is a characteristic that is not shared by all EDPs |
| 4.8 | Val-Pro-Gly [VPG] |  |
